Data taken from US4508730A, “1,7-Dihydro-pyrrolo[3,4-e][1,4]diazepin-2(3H)-one derivatives a process for preparing them and their use as anticonvulsant and anti-anxiety agents” (Gruppo Lepetit S.p.A., priority 1982, dated 1985).
Structures can show the parent of a compound that is named as a salt.

Key:
[1] = antipentylenetetrazole bioassay in mice; type: in vivo; conditions: Mus musculus, 2 h; for responders at 100 mg/kg: sc, 100 mg/kg compound 30 minutes before fatal dose of pentylenetetrazole (140 mg/kg s.c.), read-out: protection against pentylenetetrazole (animals still alive two hours after administration); for ED50: ip, i.p., pentylenetetrazole 140 mg/kg s.c., read-out: ED50 (dose at which 50% of the treated animals are protected)
Protocol: To evaluate the anticonvulsant activity the compounds of the present invention have been submitted to the antipentylenetetrazole bioassay in mice. The experiments have been carried out by following essentially the methodology described by Berger in J. Pharm. Exptl. Ther. 104, 468, (1952). More particularly, a fatal dose of pentylenetetrazole (140 mg/kg s.c.) was administered to groups of ten mice each, treated, 30 minutes before the administration of the convulsant agent, with a selected dose (100 mg/kg) of the potential anticonvulsant compound. […] Since the animals of the control group died within 30 minutes, the effectiveness of the compounds tested was expressed as the number of animals of the group which were still alive two hours after the administration of pentylenetetrazole, out of the total number of animals of the group (10). In this experiment the compounds of examples 1,2,8, 9, 10, 11, 13, 14, 15, 16, and 17 were fully effective giving a 100% protection against pentylenetetrazole.

[2] = biological target: benzodiazepine receptors; experiment: "benzodiazepine receptors" test, displacement of ^3 H-Diazepam from rat brain receptors; type: binding; conditions: ^3 H-Diazepam displacement, read-out: In vitro Ki
Protocol: The anti-anxiety activity of the compounds of the present invention was shown by submitting the compounds to the "benzodiazepine receptors" test.
These experiments were carried out by following the method described by H. Mohler and T. Okada in Life Sciences, Vol. 20, 2101-2110 (1977).

[3] = biological target: GABA receptor; experiment: GABA receptor assay, displacement of ^3 H-GABA; type: binding; conditions: for IC50: ^3 H-GABA displacement; for displacement of ^3 H-GABA from its receptors: at micromolar concentrations
Protocol: Furthermore some of the compounds of the present invention have been tested in the GABA receptor assay. In this test which was carried out by following the methodology described by M. Herschel and R. J. Baldessarini in Life Sciences, 24, 1849-1854, (1979), the compounds of examples 3 and 15 resulted to be active in displacing more than 50% of ^3 H-GABA from its receptors at micromolar concentrations. […] (As for the GABA's mediating effect of the anxiolytic action of benzodiazepines, see for instance S. J. Enna--Biochemical Pharmacology--30, No. 9, 907-913, (1981)).

Row | Structure (SMILES) | responders at 100 mg/kg [1] [%] | Ki [2] [nM] | IC50 [3] [nM] | displacement of ^3 H-GABA from its receptors [3] | ED50 [1] [mg/kg]
1 | CCOC(=O)CCCNC(=O)CCC(=O)OC1N=C(c2ccccc2)c2c(cn(C)c2C)NC1=O (centres unmarked) [Example 15, hydrochloride] | 100 | 38.9 | 3000 | more than 50% | –
2 | COc1ccc(C(=O)OC2N=C(c3ccccc3Cl)c3c(cn(C)c3C)N(C)C2=O)cc1 (centres unmarked) [Example 10] | 100 | 8.1 | – | – | –
3 | CCCC(=O)OC1N=C(c2ccccc2)c2c(cn(C)c2C)NC1=O (centres unmarked) [Example 8, 1,7-dihydro-6,7-dimethyl-3-[(1-oxobutyl)oxy]-5-phenyl-pyrrolo[3,4-e][1,4]diazepin-2(3H)-one] | 100 | – | – | – | –
4 | COC1N=C(c2ccccc2Cl)c2c(cn(C)c2C)N(C)C1=O.Cl.O (centres unmarked) [Example 17, 5-(2-chlorophenyl)-1,7-dihydro-3-methoxy-1,6,7-trimethyl-pyrrolo[3,4-e][1,4]diazepin-2(3H)-one hydrochloride hydrate] | 100 | 23 | – | – | 8
5 | CCOC(=O)CCCNC1N=C(c2ccccc2Cl)c2c(cn(C)c2C)N(C)C1=O (centres unmarked) [Example 18, 5-(2-chlorophenyl)-3-[[3-(ethoxycarbonyl)propyl]amino]-1,7-dihydro-1,6,7-trimethyl-pyrrolo[3,4-e][1,4]diazepin-2(3H)-one] | – | 46.1 | – | – | –
6 | Cc1c2c(cn1C)N(C)C(=O)C(OC(=O)C(C)(C)C)N=C2c1ccccc1Cl (centres unmarked) [Example 2, 5-(2-chlorophenyl)-1,7-dihydro-1,6,7-trimethyl-3-(2,2-dimethylpropanoyloxy)-pyrrolo[3,4-e][1,4]diazepin-2(3H)-one] | 100 | 17.2 | – | – | –
7 | Cc1ccccc1C(=O)OC1N=C(c2ccccc2Cl)c2c(cn(C)c2C)N(C)C1=O (centres unmarked) [Example 3] | – | 1.7 | 35000 | more than 50% | –
8 | Cc1c2c(cn1C)NC(=O)C(OC(=O)CCC(=O)O)N=C2c1ccccc1 (centres unmarked) [Example 14, 1,4-butandioic acid 1-[1,3,7-trihydro-6,7-dimethyl-2-oxo-5-phenyl-pyrrol[3,4-e][1,4]diazepinyl]ester] | 100 | – | – | – | –
9 | Cc1c2c(cn1C)N(C)C(=O)C(OC(=O)C(C)C)N=C2c1ccccc1Cl (centres unmarked) [Example 9, 5-(2-chlorophenyl)-1,7-dihydro-1,6,7-trimethyl-3-[(2-methyl-1-oxopropyl)oxy]-pyrrolo[3,4-e][1,4]diazepin-2(3H)-one] | 100 | 4.1 | – | – | 5
10 | Cc1c2c(cn1C)N(C)C(=O)C(OC(=O)c1ccc(-c3ccccc3)cc1)N=C2c1ccccc1Cl (centres unmarked) [Example 11] | 100 | – | – | – | –
11 | Cc1c2c(cn1C)N(C)C(=O)C(OC(=O)c1ccccc1)N=C2c1ccccc1Cl (centres unmarked) [Example 1, 5-(2-chlorophenyl)-1,7-dihydro-1,6,7-trimethyl-3-(phenylcarbonyloxy)-pyrrolo[3,4-e][1,4]diazepin-2(3H)-one] | 100 | 6.7 | – | – | –
12 | Cc1c2c(cn1C)N(C)C(=O)C(OC(=O)CCC(=O)O)N=C2c1ccccc1Cl (centres unmarked) [Example 13, 1,4-butandioic acid 1-[5-(2-chlorophenyl)-1,3,7-trihydro-1,6,7-trimethyl-2-oxo-pyrrolo[3,4-e][1,4]diazepinyl]ester] | 100 | – | – | – | –
13 | CCOC1N=C(c2ccccc2Cl)c2c(cn(C)c2C)N(C)C1=O (centres unmarked) [Example 16, 5-(2-chlorophenyl)-3-ethoxy-1,7-dihydro-1,6,7-trimethyl-pyrrolo[3,4-e][1,4]diazepin-2(3H)-one hydrochloride hydrate] | 100 | 24.6 | – | – | –
